Measurements as given in patent publication US20150119378A1, “AZETIDINYLOXY-, PYRROLIDINYLOXY-, AND PIPERIDINYLOXY-SUBSTITUTED METANICOTINES AS NEURONAL NICOTINIC ACETYLCHOLINE RECEPTOR LIGANDS” (priority 2013, published 2015).
Like-named read-outs stand apart in the source and are kept apart here.

Tests used:
Rat Ganglion = Rat Ganglion (Rattus norvegicus, UniProt P04757+P12392); assay: Competition binding to receptors in membrane preparations, rat ganglion subtype ([3H]-epibatidine)
Method: (§1) Binding to nicotinic receptors was assayed on membranes using standard methods adapted from published procedures (Lippiello and Fernandes, 1986; Davies et al., 1999). In brief, membranes were reconstituted from frozen stocks (approximately 0.2 mg protein) and incubated for 2 h on ice in […] assay buffer (PBS) in the presence of competitor compound (0.001 nM to […]) and radioligand. [^3H]-nicotine (L-(−)-[N-methyl-3H]-nicotine, 69.5 Ci/mmol, Perkin-Elmer Life Sciences) was used for human α4β2 binding studies. [^3H]-epibatidine (52 Ci/mmol, Perkin-Elmer Life Sciences) was used for binding studies at the other receptor subtypes. Incubation was terminated by rapid filtration on a multimanifold tissue harvester (Brandel, Gaithersburg, Md.) using GF/B filters presoaked in 0.33% polyethyleneimine (w/v) to reduce non-specific binding. Filters were washed 3 times and the radioactivity retained was determined by liquid scintillation counting.
(§2) Binding data were expressed as percent total control binding. Replicates for each point were averaged and plotted against the log of drug concentration. The IC50 (concentration of the compound that produces 50% inhibition of binding) was determined by least squares non-linear regression using GraphPad Prism software (GraphPAD, San Diego, Calif.). Ki was calculated using the Cheng-Prusoff equation (Cheng and Prusoff, 1973).

Human α4β2 = target: T1, Human α4β2 (Homo sapiens, UniProt P17787+P43681); assay: Competition binding to receptors in membrane preparations, human α4β2 ([3H]-nicotine)
T1 construct: expressed in transfected cells; obtained from Dr. Ron Lukas, Barrow Neurological Institute
Method: (§3) SH-EP1/human α4β2 (Eaton et al., 2003), SH-EP1/human α4β4 (Gentry et al., 2003), SH-EP1/α6β3β4α5 (Grinevich et al., 2005), TE671/RD and SH-SY5Y cell lines (obtained from Dr. Ron Lukas, Barrow Neurological Institute) were maintained in proliferative growth phase in Dulbecco's modified Eagle's medium (Gibco/BRL) with 10% horse serum (Gibco BRL), 5% fetal bovine serum (HyClone, Logan Utah), 1 mM sodium pyruvate, 4 mM L-glutamine. For maintenance of stable transfectants, the α4β2 and α4β4 cell media was supplemented with 0.25 mg/mL zeocin and 0.13 mg/mL hygromycin B. Selection was maintained for the α6β3β4α5 cells with 0.25 mg/mL of zeocin, 0.13 mg/mL of hygromycin B, 0.4 mg/mL of geneticin, and 0.2 mg/mL of blasticidin. HEK/human α7/RIC3 cells (obtained from J. Lindstrom, U. Pennsylvania) were maintained in proliferative growth phase in Dulbecco's modified Eagle's medium (Gibco/BRL) with 10% fetal bovine serum (HyClone, Logan Utah), 1 mM sodium pyruvate, 4 mM L-glutamine, 0.4 mg/mL geneticin; 0.2 mg/ml hygromycin B.
(§4) Cells were harvested in ice-cold PBS, pH 7.4, then homogenized with a polytron (Brinkmann Instruments, Westbury, N.Y.). Homongenates were centrifuged at 40,000 g for 20 minutes (4° C.). The pellet was resuspended in PBS and protein concentration determined using the Pierce BCA Protein Assay kit (Pierce Biotechnology, Rockford, Ill.).
as §1, §2

Human Ganglion = target: T2, Human Ganglion (Homo sapiens, UniProt P30926+P32297); assay: Competition binding to receptors in membrane preparations, human ganglion subtype ([3H]-epibatidine)
T2 construct: endogenous in cells
Method: as §3, §4, §1, §2

Human α7 nAChR = target: T3, Human α7 nAChR (Homo sapiens, UniProt P36544); assay: Competition binding to receptors in membrane preparations, human α7 ([3H]-epibatidine)
T3 construct: expressed in transfected cells; host or cells: HEK cells co-expressing RIC3 (from J. Lindstrom, U. Pennsylvania)
Method: as §3, §4, §1, §2

[1] = system: memory (recognition) task in the rat; assay: Object recognition task (NOR); assay type: in vivo, male Sprague-Dawley rats
Method: The compounds of the present invention were assessed for cognitive enhancing properties in the object recognition task in rats. In more detail, the compounds of the present invention, specifically Test Compound, (2S,4E)-N-methyl-5-(5-((3R)-1-(4,4,4-trifluorobutanoyl)pyrrolidin-3-yloxy)-6-chloro-3-pyridinyl)-4-penten-2-amine, or a pharmaceutically acceptable salt thereof, such as the hemi-galactarate, were tested to characterize the cognitive-enhancing properties of in a memory (recognition) task in the rat following oral dosing. Reference is made, for example, to Ennaceur A., et al., (1988), A New One-Trial Test for Neurobiological Studies of Memory in Rats, Behavioral Brain Research, 31, pp. 47-59.
The animals used were male Sprague-Dawley rats (Charles River, Raleigh, N.C., USA), of 134-173 g body weight range on receipt. The animals were stabilized for at least 6 days after delivery in plastic cages on alpha-dry bedding with access to food and water (2 per cage).
The Test Compound was dissolved in deionized water. The treatment schedule was 0.001, 0.01 and 0.1 mg/kg of base (salt/base ratio=1.25; equivalent to […]) or vehicle was administered p.o. 6H before exploratory, acquisition, and recall object recognition trials. All treatments were separated by 24 h, however although the acclimation and acquisition trials were separated by 24 h, the recall trial occurred 30 h after the acquisition trial (i.e. 6 h after the third dose).
The method of evaluation included cognitive activity using the method of Luine et al. A statistical analysis was performed using parametric distribution (exploration time): Student's t-test; (% RI): Kruskall-Wallace One-way ANOVA on Ranks with Dunn's method for post-hoc analyses.

[2] = system: scopolamine induced deficit in mice; assay: Morris Water Maze, scopolamine-induced memory (spatial) deficit; assay type: in vivo, male CD-1 mice
Method: Compounds of the present invention were tested in the Morris Water Navigation Task to characterize the cognitive-enhancing properties, namely through a chemically-induced memory (spatial) deficit task in the mouse.
The animals were male CD-1 mice (Charles River, Raleigh, N.C., USA), with 25-30 g body weight range on receipt. Animals were stabilized for at least 5 days after delivery in plastic cages on alpha-dry bedding with free access to food and water.
Test Compound, (2S,4E)-N-methyl-5-(5-((3R)-1-(4,4,4-trifluorobutanoyl)pyrrolidin-3-yloxy)-6-chloro-3-pyridinyl)-4-penten-2-amine, or a pharmaceutically acceptable salt thereof, such as the hemi-galactarate, was dissolved in deionized water (salt/base ratio=1.25).
The treatment schedule included scopolamine (0.75 mg/kg; s.c.) administered 15 minutes before the first training session each training day in combination with Test Compound (0.3, 1, 3 mg/kg of base) administered i.g. 25 minutes before the first training session each training day.
Scopolamine (0.75 mg/kg; s.c.) alone was administered 15 minutes before the training session each training day.
Cognitive activity was evaluated using an acquisition procedure in the Morris water maze whereby animals are administered a cognitively impairing compound (scopolamine) alone or in combination with a Test Compound during training sessions on days 1-4. Performance is evaluated on day 5 during a probe trial without any drug on board.
Preliminary analysis used one-way analysis of variance followed by post-hoc t-tests (Dunnetts) where applicable.

[3] = 0.3 mg/kg i.g. with scopolamine 0.75 mg/kg s.c., vs scopolamine alone, Dunnett's p<0.01

Q: CN[C@@H](C)C/C=C/c1cncc(O[C@H]2CCN(C(=O)CCC(F)(F)F)C2)c1 was tested. Which Ki (Rat Ganglion) did it give?
A: The Ki was 33 µM.

Q: What about the Ki (Human α4β2; read-out: Human α4β2 Ki) of the same compound?
A: Its Ki is 0.011 µM.

Q: What about the Ki (Human Ganglion) of the same compound?
A: The Ki was 18 µM.

Q: And the Ki (Human α7 nAChR)?
A: Its Ki is 49 µM.

Q: Which results are given for CN[C@@H](C)C/C=C/c1cncc(O[C@H]2CCN(C(=O)c3ccc(F)cc3)C2)c1?
A: Ki (Rat Ganglion): 190 µM; Ki (Human α4β2; read-out: Human α4β2 Ki): 0.0052 µM; Ki (Human Ganglion): 14 µM; Ki (Human α7 nAChR): 58 µM

Q: Which Ki (Rat Ganglion) does the source give for CN[C@@H](C)C/C=C/c1cnc(Cl)c(O[C@H]2CCN(C(=O)c3ccc(F)cc3)C2)c1 here?
A: Its Ki is 5.9 µM.

Q: What about the Ki (Human α4β2; read-out: Human α4β2 Ki) of the same compound?
A: The Ki was 0.0015 µM.

Q: And the Ki (Human Ganglion)?
A: The Ki was 16 µM.

Q: And the Ki (Human α7 nAChR)?
A: The Ki was 98 µM.

Q: Which results are given for CN[C@@H](C)C/C=C/c1cncc(O[C@@H]2CCN(C(=O)C(C)C)C2)c1?
A: Ki (Rat Ganglion): 50 µM; Ki (Human α4β2; read-out: Human α4β2 Ki): 0.009 µM; Ki (Human Ganglion): 11 µM; Ki (Human α7 nAChR): 35 µM

Q: With CN[C@@H](C)C/C=C/c1cncc(O[C@@H]2CCN(C(=O)c3ccc(F)cc3F)C2)c1 as the compound, how does the Ki (Rat Ganglion) read?
A: Its Ki is 19 µM.

Q: And the Ki (Human α4β2; read-out: Human α4β2 Ki)?
A: Its Ki is 0.0059 µM.

Q: What about the Ki (Human Ganglion) of the same compound?
A: The Ki was 3 µM.

Q: What about the Ki (Human α7 nAChR) of the same compound?
A: The Ki was 41 µM.

Q: For CN[C@@H](C)C/C=C/c1cncc(O[C@@H]2CCN(C(=O)C(C)(C)C)C2)c1, which Ki (Rat Ganglion) is on record?
A: The Ki was 100 µM.

Q: And the Ki (Human α4β2; read-out: Human α4β2 Ki)?
A: Its Ki is 0.017 µM.

Q: What about the Ki (Human Ganglion) of the same compound?
A: The Ki was 21 µM.

Q: What about the Ki (Human α7 nAChR) of the same compound?
A: Its Ki is 51 µM.

Q: With CN[C@@H](C)C/C=C/c1cncc(O[C@@H]2CCN(C(=O)C3CCC3)C2)c1 as the compound, how does the Ki (Rat Ganglion) read?
A: The Ki was 45 µM.

Q: What about the Ki (Human α4β2; read-out: Human α4β2 Ki) of the same compound?
A: The Ki was 0.0061 µM.

Q: What about the Ki (Human Ganglion) of the same compound?
A: The Ki was 26 µM.

Q: What about the Ki (Human α7 nAChR) of the same compound?
A: Its Ki is 58 µM.

Q: Which Ki (Rat Ganglion) does the source give for CN[C@@H](C)C/C=C/c1cncc(O[C@@H]2CCN(C(=O)C3CCCC3)C2)c1 here?
A: The Ki was 28 µM.

Q: What about the Ki (Human α4β2; read-out: Human α4β2 Ki) of the same compound?
A: The Ki was 0.0074 µM.

Q: And the Ki (Human Ganglion)?
A: Its Ki is 14 µM.

Q: And the Ki (Human α7 nAChR)?
A: Its Ki is 26 µM.

Q: How did the “overt behavioral side effects” value ([1]; 0.001, 0.01, 0.1 mg/kg p.o., rats) turn out when CN[C@@H](C)C/C=C/c1cnc(Cl)c(O[C@@H]2CCN(C(=O)CCC(F)(F)F)C2)c1 [Test Compound, (2S,4E)-N-methyl-5-(5-((3R)-1-(4,4,4-trifluorobutanoyl)pyrrolidin-3-yloxy)-6-chloro-3-pyridinyl)-4-penten-2-amine] was run?
A: Its value is “No overt behavioral side effects were observed”.

Q: And the “recognition index (% RI) compared to vehicle-treated group” value ([1]; all dose groups 0.001-0.1 mg/kg p.o., statistical significance at the two higher doses)?
A: The value was “improved”.

Q: What about the “time investigating object B (novel) versus object A (familiar)” value ([1]; any dose (0.001, 0.01 or 0.1 mg/kg p.o.), recall 6 h after third daily dose) of the same compound?
A: The value was “spent significantly (P<0.05) more time investigating object B (novel) than object A (familiar)”.

Q: And the “MED for % RI” value ([1]; p.o., rats, non-parametric statistical analyses)?
A: Its value is 0.01 mg/kg.

Q: And the “episodic memory, % RI (summary)” value ([1]; young rats, dose range of 0.01 to 0.1 mg/kg, strong trend at 0.001 mg/kg)?
A: The value was “facilitates episodic memory”.

Q: And the “mean distance from the platform (proximity) in the probe trial” value [2, 3]?
A: Its value is “significantly improved performance”.

Q: And the “time spent in the target quadrant in the probe trial” value [2, 3]?
A: Its value is “significantly improved performance”.

Q: What about the “time spent in the target quadrant in the probe trial” value ([2]; 3.0 mg/kg i.g. with scopolamine 0.75 mg/kg s.c., vs scopolamine alone, Dunnett's p<0.05) of the same compound?
A: Its value is “significantly improved performance”.

Q: What about the “spatial memory performance (summary)” value ([2]; doses of 0.3 and 3.0 mg/kg, animals cognitively impaired by scopolamine) of the same compound?
A: The value was “significantly improved spatial memory performance”.

Q: Which results are given for CN[C@@H](C)C/C=C/c1cnc(Cl)c(O[C@@H]2CCN(C(=O)CCC(F)(F)F)C2)c1 [drawing 62]?
A: Ki (Rat Ganglion): 15 µM; Ki (Human α4β2): 0.0014 µM; Ki (Human Ganglion): 7.4 µM; Ki (Human α7 nAChR): 55 µM
